Experimental data from the OPERA property sets (Mansouri et al. 2018).

Details: for log10 BCF / log10 biotransformation half-life (days): fish

| Structure (SMILES) | melting point | boiling point | further results |
| --- | --- | --- | --- |
| O=P(O)(O)CCP(=O)(O)O | 218 °C | – | – |
| CC(=O)C=NO | 69 °C | – | – |
| CC(C)(O)C(Br)(Br)Br | 169 °C | – | – |
| Nc1nc(=O)[nH]cc1F | 296 °C | – | – |
| CN1CCc2c(c3ccccc3n2Cc2ccccc2)C1 | 95 °C | – | – |
| CCOP(=S)(OCC)OP(=S)(OCC)OCC | – | – | log10 vapour pressure (mmHg): -3.98 |
| CC(=O)Nc1ncc([N+](=O)[O-])s1 | 264 °C | – | – |
| CCCCCCl | -99 °C | 108 °C | log10 Henry constant (atm·m³/mol): -1.62; log10 vapour pressure (mmHg): 1.52 |
| COC(=O)[C@@H]1[C@H]2C[C@H]3c4[nH]c5ccccc5c4CCN3C[C@@H]2CC[C@@H]1O | 251 °C | – | – |
| CCCCCCCC(=O)NN | 88 °C | – | – |
| Clc1ccc(Oc2ccccc2)cc1Cl | – | – | log10 vapour pressure (mmHg): -3.19 |
| Clc1ccc2c(c1)oc1c(Cl)c(Cl)cc(Cl)c12 | 190 °C | – | – |
| CC(C)Nc1nc(N)nc(Cl)n1 | 133 °C | – | – |
| C=CCC(CC=C)(C(=O)OCC)C(=O)OCC | – | 244 °C | – |
| CCC(C)S (stereo not drawn) | -165 °C | 84.5 °C | log10 vapour pressure (mmHg): 1.91 |
| Nc1ccc(CCc2ccc(N)cc2)cc1 | 137 °C | – | – |
| Clc1cc2oc3c(Cl)c(Cl)ccc3c2c(Cl)c1Cl | 206 °C | – | log10 vapour pressure (mmHg): -8.65 |
| c1ccc2c(c1)Sc1ccccc1S2 | 159 °C | 365 °C | ready biodegradability: not readily biodegradable |
| COc1cccc(CO)c1O | 61.5 °C | – | – |
| CC(=O)OCC(CO)OC(C)=O (stereo not drawn) | – | 259 °C | ready biodegradability: readily biodegradable |
| CC(I)I | – | 180 °C | – |
| NNc1nncc2ccccc12 | 172 °C | – | – |

| Structure (SMILES) | melting point | boiling point | further results |
| --- | --- | --- | --- |
| O=CC=Cc1ccc([N+](=O)[O-])o1 | 118 °C | – | – |
| COc1ccc(C(=O)CCC(=O)O)cc1 | 149 °C | – | – |
| COc1cc(OC)nc(NC(=O)NS(=O)(=O)c2ncccc2C(F)(F)F)n1 | 180 °C | – | – |
| CC1(C)[C@@H]2CC[C@@]1(C)[C@H](O)C2 | 209 °C | – | – |
| O=C(O)Cc1cccc(F)c1 | 43 °C | – | – |
| O=Cc1ccccc1O | -7 °C | 197 °C | log10 vapour pressure (mmHg): -0.227 |
| C1CC12CC2 | -135 °C | 39 °C | log10 vapour pressure (mmHg): 2.66 |
| CCN(CC)C(=O)n1cnc(S(=O)(=O)c2c(C)cc(C)cc2C)n1 | 115 °C | – | log10 vapour pressure (mmHg): -10.6 |
| C#CC(C)(O)CC (stereo not drawn) | 30.5 °C | 120 °C | log10 vapour pressure (mmHg): 0.72; ready biodegradability: readily biodegradable |
| C#CC1(OC(N)=O)CCCCC1 | 96 °C | – | ready biodegradability: readily biodegradable |
| Cc1cccc(-c2ccccc2)c1 | 4.5 °C | 273 °C | – |
| COCN(COC)c1nc(N(COC)COC)nc(N(COC)COC)n1 | – | – | ready biodegradability: not readily biodegradable; log10 BCF: 0.54 |
| C#CCCCCCCCCCCCCCCCCCC | 36 °C | 340 °C | – |
| C=C(Br)Br | – | 92 °C | – |
| CCc1cc2c(s1)N(C)C(=O)CN=C2c1ccccc1Cl | 119 °C | – | – |
| CCC1Nc2cc(Cl)c(S(N)(=O)=O)cc2S(=O)(=O)N1 (stereo not drawn) | 270 °C | – | – |
| O=C(OC(=O)C(F)(F)F)C(F)(F)F | -65 °C | 39.5 °C | log10 vapour pressure (mmHg): 1.61 |
| O=c1[nH]c2c(c(=O)n1C1CCCCC1)CCC2 | 316 °C | – | log10 Koc (L/kg): 2.14; log10 vapour pressure (mmHg): -8.82 |
| O=C(Nc1ccccc1)C(Cl)(Cl)Cl | 96 °C | – | – |
| O=C(O)Cc1ccc([N+](=O)[O-])cc1 | 154 °C | – | – |
| Cc1ccc(C)c2occc12 | – | 216 °C | – |
| NS(=O)(=O)c1ccc(SCCCCCO)cc1 | 103 °C | – | – |

| Structure (SMILES) | melting point | boiling point | further results |
| --- | --- | --- | --- |
| CC(=O)C(F)(F)F | – | 22 °C | log10 Henry constant (atm·m³/mol): -5.11 |
| Cc1c(N)cccc1[N+](=O)[O-] | 92 °C | 305 °C | – |
| O[C@H]1[C@H](O)[C@H](O)OC[C@H]1O | 158 °C | – | – |
| NC(=O)c1cccc([N+](=O)[O-])c1 | 143 °C | 312 °C | log10 Koc (L/kg): 1.95 |
| COc1c(Cl)c(Cl)c(Cl)c(Cl)c1Cl | 108 °C | – | log10 BCF: 4.16; log10 biotransformation half-life (days): 2.67 |
| CC(=O)C1CCCC1 | – | 158 °C | – |
| Cc1cn(C)c2ccccc12 | 142 °C | 258 °C | – |
| CCN(CC)c1ccccc1 | -38.8 °C | 216 °C | log10 Koc (L/kg): 2.08; log10 vapour pressure (mmHg): -0.866; ready biodegradability: not readily biodegradable; log10 BCF: 2.01 |
| Cc1c(F)c(F)c(COC(=O)C2C(/C=C(\Cl)C(F)(F)F)C2(C)C)c(F)c1F (stereo not drawn) | 44.6 °C | – | log10 vapour pressure (mmHg): -4.22 |
| N#CCc1cccc([N+](=O)[O-])c1 | 63 °C | – | – |
| CCOCCOC(=O)c1ccccc1C(=O)OCCOCC | 34 °C | 345 °C | – |
| O=C(O)/C=C/CCCCCCCCC(=O)O | 166 °C | – | – |
| CCN(CC)C(=O)SCc1ccc(Cl)cc1 | 3.3 °C | – | log10 Koc (L/kg): 3.27; log10 vapour pressure (mmHg): -4.66; log10 BCF: 2.23; log10 biotransformation half-life (days): 0.66 |
| O=C(NC(=O)c1c(F)cccc1F)Nc1cc(Cl)c(Oc2ncc(C(F)(F)F)cc2Cl)c(Cl)c1 | – | – | log10 Henry constant (atm·m³/mol): -11.7 |
| CCc1ccc(N)cc1 | -4.8 °C | 218 °C | log10 vapour pressure (mmHg): -0.844 |
| CCCCCCCCCCCCC=O | 14 °C | – | – |
| CCCCCCCCCCSSCCCCCCCCCC | – | – | ready biodegradability: not readily biodegradable |
| CCCCNCCCC | -62 °C | 160 °C | log10 Henry constant (atm·m³/mol): -4.05; log10 vapour pressure (mmHg): 0.413; ready biodegradability: readily biodegradable |
| OC1CCCCCC1 | 2 °C | 185 °C | – |
| O=C1CC(C(=O)O)CC(=O)C1=C(O)C1CC1 (stereo not drawn) | 144 °C | – | log10 vapour pressure (mmHg): -7.76 |
| c1ccc(OB(Oc2ccccc2)Oc2ccccc2)cc1 | 99.5 °C | – | – |
| CCCC(C)c1ccccc1 (stereo not drawn) | – | 199 °C | – |

| Structure (SMILES) | melting point | boiling point | further results |
| --- | --- | --- | --- |
| Cc1cc2ccccc2c2ccccc12 | – | – | log10 biotransformation half-life (days): 0.12 |
| Cc1cc(C)c(O)cc1O | 126 °C | 276 °C | – |
| CC(C)(C)I | -38.2 °C | 100 °C | – |
| ICCCI | -20 °C | – | – |
| CCCCCCCCCCCCCCCC | 18.1 °C | 287 °C | log10 biodegradation half-life (days): 1.23; log10 vapour pressure (mmHg): -2.84; ready biodegradability: not readily biodegradable; log10 BCF: 3.7 |
| CC1CNC(=S)N1 (stereo not drawn) | – | – | log10 BCF: 1 |
| C=CCc1ccc(O)c(OC)c1 | -9.1 °C | 253 °C | log10 vapour pressure (mmHg): -1.65 |
| CC(C)(C)c1ccc2c(c1)C(=O)c1ccccc1C2=O | 99 °C | – | ready biodegradability: not readily biodegradable |
| CC(=O)F | -84 °C | 20.8 °C | – |
| ClC(Cl)I | – | 132 °C | – |
| C[C@@H](CN1CC(=O)NC(=O)C1)N1CC(=O)NC(=O)C1 | 238 °C | – | – |
| O=C(O)Cc1ccc2ccccc2c1 | 142 °C | – | – |
| CCCSCC | -117 °C | 119 °C | log10 vapour pressure (mmHg): 1.27 |
| CC(C)c1ccc(N)cc1 | – | 225 °C | log10 vapour pressure (mmHg): -1.08; ready biodegradability: not readily biodegradable |
| Brc1ccncc1 | 0.5 °C | – | – |
| O=C1C=C(c2ccccc2)CC1 | -23 °C | 234 °C | – |
| OCCC(F)(F)C(F)(F)C(F)(F)C(F)(F)C(F)(F)C(F)(F)C(F)(F)C(F)(F)F | – | – | ready biodegradability: not readily biodegradable |
| CC(C)=C1CC[C@@H](C)CC1=O | – | 224 °C | log10 vapour pressure (mmHg): -0.91 |
| COc1cc(Cl)c(OC)cc1Cl | 134 °C | 268 °C | log10 Koc (L/kg): 3.1; log10 vapour pressure (mmHg): -2.52 |
| COc1cc(C(=O)O)ccc1O | 212 °C | – | ready biodegradability: readily biodegradable |
